Source: patent US8067590B2, “Pyridone derivates with MCH antagonistic activity and medicaments comprising these compounds” (Boehringer Ingelheim International GmbH, priority 2006, dated 2011)

How the values were obtained:
hMCH-1R = target: T1, hMCH-1R (Homo sapiens, UniProt Q99705); test: MCH-1 receptor binding test (125I-MCH binding to membranes of hMCH-1R transfected CHO/Galpha16 cells)
T1 construct: expressed in transfected cells; host or cells: CHO/Galpha16 cells (membranes)
Description: Membranes from CHO/Galpha16 cells stably transfected with human hMCH-1R are resuspended using a syringe (needle 0.6×25 mm) and diluted in test buffer (50 mM HEPES, 10 mM MgCl2, 2 mM EGTA, pH 7.00; 0.1% bovine serum albumin (protease-free), 0.021% bacitracin, 1 μg/ml aprotinin, 1 μg/ml leupeptin and 1 μM phosphoramidone) to a concentration of 5 to 15 μg/ml.
After the incubation the reaction is filtered using a cell harvester through 0.5% PEI treated fibreglass filters (GF/B, Unifilter Packard). The membranebound radioactivity retained on the filter is then determined after the addition of scintillator substance (Packard Microscint 20) in a measuring device (TopCount of Packard). The non-specific binding is defined as bound radioactivity in the presence of 1 micromolar MCH during the incubation period.
The analysis of the concentration binding curve is carried out on the assumption of one receptor binding site.

MCH-1R [1] = target: T2, MCH-1R (Rattus norvegicus, UniProt P97639); design: host or cells: rats (in vivo); details: rats; cited from earlier work
T2 sequence (P97639 whole entry): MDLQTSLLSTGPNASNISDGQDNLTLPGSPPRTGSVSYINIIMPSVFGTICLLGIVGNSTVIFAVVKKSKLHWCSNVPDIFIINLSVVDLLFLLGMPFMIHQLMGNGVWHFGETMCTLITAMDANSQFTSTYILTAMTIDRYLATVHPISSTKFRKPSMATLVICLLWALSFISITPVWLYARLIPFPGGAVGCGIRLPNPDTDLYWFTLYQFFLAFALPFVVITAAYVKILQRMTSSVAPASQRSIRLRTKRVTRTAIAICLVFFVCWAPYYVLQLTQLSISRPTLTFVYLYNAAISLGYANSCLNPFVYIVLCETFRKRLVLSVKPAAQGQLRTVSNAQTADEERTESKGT

MCH-1R [2] = target: T2, MCH-1R; design: host or cells: whole animals (in vivo); details: animals treated with the antagonist; cited from earlier work

T1 sequence (Q99705 whole entry): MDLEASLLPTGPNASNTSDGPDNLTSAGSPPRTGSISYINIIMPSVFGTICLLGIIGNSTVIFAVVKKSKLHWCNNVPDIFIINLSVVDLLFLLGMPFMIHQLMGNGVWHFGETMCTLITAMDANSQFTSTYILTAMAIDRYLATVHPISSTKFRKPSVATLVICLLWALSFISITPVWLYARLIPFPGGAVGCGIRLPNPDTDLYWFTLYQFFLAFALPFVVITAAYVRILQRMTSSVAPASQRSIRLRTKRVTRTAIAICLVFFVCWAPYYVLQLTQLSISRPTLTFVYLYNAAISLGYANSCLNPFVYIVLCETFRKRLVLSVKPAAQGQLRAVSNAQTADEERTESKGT

## CC(=O)NC1CCN(Cc2ccc(CCn3ccc(OCc4ccsc4)cc3=O)cc2)CC1 [Example 4.2, N-[1-(4-{2-[2-Oxo-4-(thiophen-3-ylmethoxy)-2H-pyridin-1-yl]-ethyl}-benzyl)-piperidin-4-yl]-acetamide]
hMCH-1R
  IC50: 8 nM

## O=c1cc(OCc2ccco2)ccn1CCc1ccc(CN2CCCC2)cc1 [Example 6.1, 4-(Furan-2-ylmethoxy)-1-[2-(4-pyrrolidin-1-ylmethyl-phenyl)-ethyl]-1H-pyridin-2-one]
hMCH-1R
  IC50: 13 nM

## O=c1cc(OCc2ccccc2)cnn1CCc1ccc(CN2CCCC2)cc1 [Example 21.2]
hMCH-1R
  IC50: 3 nM

## O=C(Cn1ccc(OCc2ccccc2)cc1=O)c1ccc2c(c1)CCN(C(=O)C(F)(F)F)CC2 [Example 22.1, 4-Benzyloxy-1-{2-oxo-2-[3-(2,2,2-trifluoro-acetyl)-2,3,4,5-tetrahydro-1H-3-benzazepin-7-yl]-ethyl}-1H-pyridin-2-one]
hMCH-1R
  IC50: 51 nM

## O=c1cc(OCc2ccccc2)ccn1CCc1ccc2c(c1)CCNCC2 [Example 23.2, 4-Benzyloxy-1-[2-(2,3,4,5-tetrahydro-1H-3-benzazepin-7-yl)-ethyl]-1H-pyridin-2-one]
hMCH-1R
  IC50: 7 nM

## O=c1cc(OCc2ccccc2)ccn1CCc1ccc2c(c1)CCNC2 [Example 27.2, 4-Benzyloxy-1-[2-(1,2,3,4-tetrahydro-isoquinolin-6-yl)-ethyl]-1H-pyridin-2-one]
hMCH-1R
  IC50: 8 nM

## O=c1cc(OCc2ccccc2)ccn1CCc1ccc(CN2CCCC2)s1 [Example 28.1, 4-Benzyloxy-1-[2-(5-pyrrolidin-1-ylmethyl-thiophen-2-yl)-ethyl]-1H-pyridin-2-one]
hMCH-1R
  IC50: 26 nM

## O=C(Cn1ccc(OCc2ccccc2)cc1=O)c1ccc(CN2CCC(O)CC2)cc1 [Example 29.3, 4-Benzyloxy-1-{2-[4-(4-hydroxy-piperidin-1-ylmethyl)-phenyl]-2-oxo-ethyl}-1H-pyridin-2-one]
hMCH-1R
  IC50: 16 nM

## CC1(O)CCN(Cc2ccc(C(=O)Cn3ccc(OCc4ccccc4)cc3=O)cc2)CC1 [Example 29.4]
hMCH-1R
  IC50: 16 nM

## O=C(Cn1ccc(OCc2ccccc2)cc1=O)c1ccc(CN2CC[C@@H](O)C2)cc1 [Example 29.11]
hMCH-1R
  IC50: 14 nM

## O=C(Cn1ccc(OCc2ccccc2)cc1=O)c1ccc(CN2CC(O)C2)cc1 [Example 29.13]
hMCH-1R
  IC50: 18 nM

## O=C(Cn1ncc(OCc2ccccc2)cc1=O)c1ccc(CN2CCC(O)CC2)cc1 [Example 32.2]
hMCH-1R
  IC50: 12 nM

## CC1(O)CCN(Cc2ccc(C(=O)Cn3ncc(OCc4ccccc4)cc3=O)cc2)CC1 [Example 32.3]
hMCH-1R
  IC50: 9 nM

## O=C(Cn1ncc(OCc2ccccc2)cc1=O)c1ccc(CNCC2CC2)cc1 [Example 32.8]
hMCH-1R
  IC50: 6 nM

## CN1CCN(Cc2ccc(C(=O)Cn3ncc(OCc4ccccc4)cc3=O)cc2)CC1 [Example 32.10]
hMCH-1R
  IC50: 23 nM

## O=C(Cn1ncc(OCc2ccc(Cl)cn2)cc1=O)c1ccc(CN2CCCC2)cc1 [Example 33.8]
hMCH-1R
  IC50: 19 nM

## O=C(Cn1cnc(OCc2ccccc2)cc1=O)c1ccc(CN2CCCCC2)cc1 [Example 34.3]
hMCH-1R
  IC50: 16 nM

## CN1Cc2ccc(C(=O)Cn3ccc(OCc4ccccc4)cc3=O)cc2C1 [Example 37.2, 4-Benzyloxy-1-[2-(2-methyl-2,3-dihydro-1H-isoindol-5-yl)-2-oxo-ethyl]-1H-pyridin-2-one]
hMCH-1R
  IC50: 33 nM

## O=c1cc(OCc2ccc(Br)cn2)ccn1CC(O)c1ccc2c(c1)CNCC2 (centres unmarked) [Example 39.1, 4-(5-Bromo-pyridin-2-ylmethoxy)-1-[2-hydroxy-2-(1,2,3,4-tetrahydro-isoquinolin-7-yl)-ethyl]-1H-pyridin-2-one]
hMCH-1R
  IC50: 34 nM

## O=C(Cn1ncc(OCc2ccccc2)cc1=O)c1ccc2c(c1)CNCC2 [Example 41.1, 5-Benzyloxy-2-[2-oxo-2-(1,2,3,4-tetrahydro-isoquinolin-7-yl)-ethyl]-2H-pyridazin-3-one]
hMCH-1R
  IC50: 17 nM

## CN1CCc2ccc(C(=O)Cn3ncc(OCc4ccccc4)cc3=O)cc2C1 [Example 42.1, 5-Benzyloxy-2-[2-(2-methyl-1,2,3,4-tetrahydro-isoquinolin-7-yl)-2-oxo-ethyl]-2H-pyridazin-3-one]
hMCH-1R
  IC50: 14 nM

## CN1CCc2sc(C(=O)Cn3ncc(OCc4ccccc4)cc3=O)cc2C1 [Example 44.2, 5-Benzyloxy-2-[2-(5-methyl-4,5,6,7-tetrahydro-thieno[3,2-c]pyridin-2-yl)-2-oxo-ethyl]-2H-pyridazin-3-one]
hMCH-1R
  IC50: 20 nM

## CN1CCc2cc(C(=O)Cn3ccc(OCc4ccccc4)cc3=O)ccc2C1 [Example 46.2, 4-Benzyloxy-1-[2-(2-methyl-1,2,3,4-tetrahydro-isoquinolin-6-yl)-2-oxo-ethyl]-1H-pyridin-2-one]
hMCH-1R
  IC50: 21 nM

## CC(c1ccc(C(=O)Cn2ncc(OCc3ccccc3)cc2=O)cc1)N1CCN(C)CC1 (centres unmarked) [Example 47.5]
hMCH-1R
  IC50: 27 nM

## COCC1=C(C(=O)OC)[C@H](c2ccc(F)c(F)c2)N(C(=O)NCCCN2CCC(c3cccc(NC(C)=O)c3)CC2)C(=O)N1 [SNAP-7941]
MCH-1R [1]
  effects in behavioural experiments: anxiolytic and antidepressant effects
MCH-1R [2]
  body weight effect in long term trials: lose significant amounts of weight
